Test results: patent publication US20230167127A1, “COMPOUNDS AND THEIR USE IN THE TREATMENT OF BACTERIAL INFECTION” (Hoffmann-La Roche Inc., priority 2020, published 2023)

Test system: Escherichia coli ATCC 25922
Experiment: 50% growth inhibitory concentration (IC50) determination, Iso-Sensitest broth dilution
Format: cell-based
Settings: Escherichia coli, ATCC25922, 16 h, strain Escherichia coli ATCC 25922; 10-point broth dilution, optical density at 600 nm over 16 h; read-out: Escherichia coli growth inhibition IC50
Summary of the method: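 Growth was tracked as optical density at 600 nm every 20 minutes for 16 h at 35±2° C. Compounds from DMSO stocks were serially diluted twofold over 10 points (e.g. 50–0.097 μM final) in Iso-Sensitest broth. Inhibition computed in log-phase growth to give IC50.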

Compound	IC50 [nM]
Cc1nc(N(C)C)cc2c1CC(CNCCC1CN(c3ccc4c(n3)NC(=O)CO4)C(=O)O1)C2 (centres unmarked) [Example 419, 6-[5-[2-[[3-(Dimethylamino)-1-methyl-6,7-dihydro-5H-cyclopenta[c]pyridin-6-yl]methylamino]ethyl]-2-oxo-1,3-oxazolidin-3-yl]-4H-pyrido[3,2-b][1,4]oxazin-3-one]	225
CNc1cc2c(c(C)n1)CC(CNCCC1CN(c3ccc4c(n3)NC(=O)CO4)C(=O)O1)C2 (centres unmarked) [Example 420, 6-[5-[2-[[1-Methyl-3-(methylamino)-6,7-dihydro-5H-cyclopenta[c]pyridin-6-yl]methylamino]ethyl]-2-oxo-1,3-oxazolidin-3-yl]-4H-pyrido[3,2-b][1,4]oxazin-3-one]	196
Cc1ncnc2c1CC(CNCCC1CN(c3ccc4c(n3)NC(=O)CO4)C(=O)O1)C2 (centres unmarked) [Example 421, 6-[5-[2-[(4-methyl-6,7-dihydro-5H-cyclopenta[d]pyrimidin-6-yl)methylamino]ethyl]-2-oxo-1,3-oxazolidin-3-yl]-4H-pyrido[3,2-b][1,4] oxazin-3-one]	618
N[C@@H]1c2cccc(Cl)c2C[C@H]1CNCC[C@@H]1CN(c2cnc3c(n2)NC(=O)CO3)C(=O)O1 [Example 422, 6-[(5R)-5-[2-[[(1S,2S)-1-Amino-4-chloro-2,3-dihydro-1H-inden-2-yl]methylamino]ethyl]-2-oxo-1,3-oxazolidin-3-yl]-4H-pyrazino[2,3-b][1,4]oxazin-3-one]	< 97.7
Cc1nc2c(c3c1CC(CNCCC1CN(c4ccc5c(n4)NC(=O)CO5)C(=O)O1)C3)CCN2 (centres unmarked) [Example 423, 6-[5-[2-[(8-Methyl-5,7-diazatricyclo[7.3.0.0^2.6]dodeca-1,6,8-trien-11-yl)methylamino]ethyl]-2-oxo-1,3-oxazolidin-3-yl]-4H-pyrido[3,2-b][1,4]oxazin-3-one]	468
Cc1nc2c(c3c1CC(CNCCC1CN(c4cnc5c(n4)NC(=O)CO5)C(=O)O1)C3)CCN2C (centres unmarked) [Example 424, 6-[5-[2-[(5,8-Dimethyl-5,7-diazatricyclo[7.3.0.0^2,6]dodeca-1,6,8-trien-11-yl)methylamino]ethyl]-2-oxo-1,3-oxazolidin-3-yl]-4H-pyrazino[2,3-b][1,4]oxazin-3-one]	227
N#Cc1cc(OCc2cnn[nH]2)cc2c1CC(CNCCC1CN(c3cnc4c(n3)NC(=O)CO4)C(=O)O1)C2 (centres unmarked) [Example 425, 2-[[2-[2-Oxo-3-(3-oxo-4H-pyrazino[2,3-b][1,4]oxazin-6-yl)-1,3-oxazolidin-5-yl]ethylamino]methyl]-6-(1N-triazol-5-ylmethoxy)-2,3-dihydro-1H-indene-4-carbonitrile]	102
Cc1ncc(F)c2c1C[C@@H](CNCC[C@@H]1CN(c3cnc4c(n3)NC(=O)CO4)C(=O)O1)C2 [Example 427, 6-[(5R)-5-[2-[[(6R)-4-Fluoro-1-methyl-6,7-dihydro-5H-cyclopenta[c]pyridin-6-yl]methylamino]ethyl]-2-oxo-1,3-oxazolidin-3-yl]-4H-pyrazino[2,3-b][1,4]oxazin-3-one]	< 97.7
Cc1ncc(F)c2c1C[C@@H](CNCC[C@H]1CN(c3cnc4c(n3)NC(=O)CO4)C(=O)O1)C2 [Example 428, 6-[(5S)-5-[2-[[(6R)-4-fluoro-1-methyl-6,7-dihydro-5H-cyclopenta[c]pyridin-6-yl]methylamino]ethyl]-2-oxo-1,3-oxazolidin-3-yl]-4H-pyrazino[2,3-b][1,4]oxazin-3-one]	< 97.7
Cc1ncc(F)c2c1C[C@H](CNCC[C@H]1CN(c3cnc4c(n3)NC(=O)CO4)C(=O)O1)C2 [Example 429]	< 97.7
Cc1ncc(F)c2c1C[C@H](CNCC[C@@H]1CN(c3cnc4c(n3)NC(=O)CO4)C(=O)O1)C2 [Example 430]	< 97.7
Cc1nc(Cl)c2c(c1F)CC(CNCCC1CN(c3cnc4c(n3)NC(=O)CO4)C(=O)O1)C2 (centres unmarked) [Example 431, 6-[5-[2-[(1-chloro-4-fluoro-3-methyl-6,7-dihydro-5H-cyclopenta[o]pyridin-6-yl)methylamino]ethyl]-2-oxo-1,3-oxazolidin-3-yl]-4H-pyrazino[2,3-b][1,4]oxazin-3-one; formic acid]	< 97.7
O=C1COc2ncc(N3CC(CCNCC4Cc5c(F)cnc(-c6cn[nH]c6)c5C4)OC3=O)nc2N1 (centres unmarked) [Example 432, 6-[5-[2-[[4-fluoro-1-(1H-pyrazol-4-yl)-6,7-dihydro-5H-cyclopenta[c]pyridin-6-yl]methylamino]ethyl]-2-oxo-1,3-oxazolidin-3-yl]-4H-pyrazino[2,3-b][1,4]oxazin-3-one]	120
O=C1COc2ncc(N3CC(CCNCC4Cc5c(F)cnc(-c6cnc[nH]6)c5C4)OC3=O)nc2N1 (centres unmarked) [Example 433, 6-[5-[2-[[4-Fluoro-1-(1H-imidazol-5-yl)-6,7-dihydro-5H-cyclopenta[c]pyridin-6-yl]methylamino]ethyl]-2-oxo-1,3-oxazolidin-3-yl]-4H-pyrazino[2,3-b][1,4]oxazin-3-one]	< 97.7
